Series [1] concerns MCF-7 (breast carcinoma) cell line. The series can be described thus: MTT cytotoxic assay, MCF-7. The settings on record: for IC50: MTT, 72 h, 3 repetitions, read-out: IC50 ± SD MCF-7. The series is classed as cell-based. Here is the method: The antiproliferative activity of all the synthesized compounds (8a-8 h) was done by MTT (standard 3-(4,5-dimethylthiazol-yl)-2,5-diphenyl-tetrazolium bromide) assay according to our previous protocols. MCF-7 (breast carcinoma) and SW480 (Colorectal carcinoma) cell lines were choose and purchased from the National Cell Bank of Iran (NCBI, Pasteur Institute, Tehran, Iran). RPMI 1640 culture media with 10% fetal bovine serum (FBS) and 1% penicillin-streptomycin (Gibco, USA) were applied as culture. Trypsin/EDTA 0.5% solution (Gibco/USA) was used to harvest cells and then, the cells were seeded at a density of 1 × 10^4 cells per well in 96-well microplates. […] Three untreated wells were applied as the negative control. After 72 h, the media was changed by 100 µL fresh MTT solution and incubated for 4 h at 37 °C in the incubator to achieve formazan purple crystals. Finally, the media was removed and 150 µL of DMSO was added and incubated at 37 °C in the dark for 10 min to dissolve the crystals. A Microplate ELISA reader was applied to read the absorbance of individual wells at 490 nm. Analysis of the data was obtained by Excel 2016 and Curve Expert 1.4. The data was expressed as the mean ± SD for each analysis. GraphPad Prism software was used to perform one-way ANOVA statistical analyses, followed by Tukey’s multiple comparison test.
For orientation: Tetrazolium dyes change colour on reduction, which living cells bring about.

For series [2], the system named is SW480 (Colorectal carcinoma) cell line. The series can be described thus: MTT cytotoxic assay, SW480. The series is classed as cell-based. The settings on record: Homo sapiens, 72 h, 3 repetitions, read-out: IC50 ± SD SW480. Here is the method: The antiproliferative activity of all the synthesized compounds (8a-8 h) was done by MTT (standard 3-(4,5-dimethylthiazol-yl)-2,5-diphenyl-tetrazolium bromide) assay according to our previous protocols. MCF-7 (breast carcinoma) and SW480 (Colorectal carcinoma) cell lines were choose and purchased from the National Cell Bank of Iran (NCBI, Pasteur Institute, Tehran, Iran). RPMI 1640 culture media with 10% fetal bovine serum (FBS) and 1% penicillin-streptomycin (Gibco, USA) were applied as culture. Trypsin/EDTA 0.5% solution (Gibco/USA) was used to harvest cells and then, the cells were seeded at a density of 1 × 10^4 cells per well in 96-well microplates. Five different concentrations of the derivatives and Cisplatin as the positive control (1 to 200 µM) were used for treatment in triplicate times. Three untreated wells were applied as the negative control. After 72 h, the media was changed by 100 µL fresh MTT solution and incubated for 4 h at 37 °C in the incubator to achieve formazan purple crystals. Finally, the media was removed and 150 µL of DMSO was added and incubated at 37 °C in the dark for 10 min to dissolve the crystals. A Microplate ELISA reader was applied to read the absorbance of individual wells at 490 nm. Analysis of the data was obtained by Excel 2016 and Curve Expert 1.4. The data was expressed as the mean ± SD for each analysis. GraphPad Prism software was used to perform one-way ANOVA statistical analyses, followed by Tukey’s multiple comparison test.

The subject of another series is MRC-5 normal cell line. The experiment in a line: MTT cytotoxic assay, normal cell line MRC-5. The series is classed as cell-based. The note with it: read-out: IC50 ± SD MRC-5.
Setting [3] is: Homo sapiens, MRC5, 3 repetitions.

Where two headings read alike, the source gives them in different places. Where only a bound is given, the exact number is not on record here.

The molecule `O=c1c2cc(Br)ccc2nc(SCc2ccc([N+](=O)[O-])cc2)n1-c1ccccc1` [8h, 6-bromo-2-((4-nitrobenzyl)thio)-3-phenylquinazolin-4(3 H )-one] displayed a melting point of 231 to 233 °C. In addition, in series [1] (Homo sapiens, MCF7), the IC50 stood at 73.4 ± 3.09 µM. The IC50 in series [2] worked out at 65.4 ± 2.8 µM. For the same molecule, in the series with MRC-5 normal cell line (setting [3]), the IC50 was greater than 100 µM.
As to `O=c1c2cc(Br)ccc2nc(SCc2ccc(Br)cc2)n1-c1ccccc1` [8g, 6-bromo-2-((4-bromobenzyl)thio)-3-phenylquinazolin-4(3 H )-one], the melting point lay within 175 to 177 °C. The IC50 in series [1] (Homo sapiens, MCF7) stood at 62.4 ± 3.32 µM. Besides, in series [2], the IC50 came to 68.4 ± 2.62 µM. In addition, in the series on MRC-5 normal cell line (setting [3]), the IC50 is greater than 100 µM.
As to `CCCCCSc1nc2ccc(Br)cc2c(=O)n1-c1ccccc1` [8b, 6-bromo-2-(pentylthio)-3-phenylquinazolin-4(3 H )-one], the melting point is 99 to 101 °C. Besides, the IC50 in series [1] (Homo sapiens, MCF7) was 18.2 ± 2.01 µM. Besides, the IC50 in series [2] is 56.5 ± 2.83 µM. For the same molecule, in the series on MRC-5 normal cell line (setting [3]), the IC50 worked out at 76.4 ± 2.62 µM.
For `C#Cc1cccc(Nc2ncnc3cc(OCCOC)c(OCCOC)cc23)c1` [Erlotinib, reference compound], the IC50 in series [2] came to 11.2 ± 0.38 µM; with MRC-5 normal cell line (setting [3]) it was 22.9 ± 3.1 µM.
`CCCCSc1nc2ccc(Br)cc2c(=O)n1-c1ccccc1` [8a, 6-bromo-2-(butylthio)-3-phenylquinazolin-4(3 H )-one] returned a melting point of 128 to 130 °C. Moreover, the IC50 in series [1] (Homo sapiens, MCF7) is 15.8 ± 1.48 µM. Also, the “times more potent than Erlotinib in MCF-7 cell line” value in series [1] (cytotoxic activity compared with Erlotinib) was “about 2 times”. Further, in series [2], the IC50 is 17.9 ± 0.92 µM. For the same molecule, in the series on MRC-5 normal cell line (setting [3]), the IC50 is 84.2 ± 1.72 µM.
As for `O=c1c2cc(Br)ccc2nc(SCc2ccc(Cl)cc2)n1-c1ccccc1` [8f, 6-bromo-2-((4-chlorobenzyl)thio)-3-phenylquinazolin-4(3 H )-one], the melting point lay within 145 to 147 °C. In series [1] (Homo sapiens, MCF7), the IC50 worked out at 52.5 ± 2.92 µM. The IC50 in series [2] amounted to 72.2 ± 1.41 µM. Further, the IC50 in the series with MRC-5 normal cell line (setting [3]) was greater than 100 µM.
In the same order, the values of `Cc1cccc(CSc2nc3ccc(Br)cc3c(=O)n2-c2ccccc2)c1` [8d, 6-bromo-2-((3-methylbenzyl)thio)-3-phenylquinazolin-4(3 H )-one] are 101 to 103 °C, 59.1 ± 3.73 µM, 72.5 ± 2.9 µM and greater than 100 µM.
For `N.N.[Cl][Pt][Cl]` [Cisplatin, reference compound], the IC50 in series [1] came to 9.9 ± 0.14 µM; in the series on MRC-5 normal cell line (3 repetitions), 45.2 ± 2.5 µM.
`Cc1ccc(CSc2nc3ccc(Br)cc3c(=O)n2-c2ccccc2)cc1` [8e, 6-bromo-2-((4-methylbenzyl)thio)-3-phenylquinazolin-4(3 H )-one] yielded a melting point of 164 to 166 °C. In series [1] (Homo sapiens, MCF7), the IC50 amounted to 35.1 ± 3.02 µM. Also, the IC50 in series [2] was 63.1 ± 1.63 µM. Further, in the series on MRC-5 normal cell line (setting [3]), the concentration for half-maximal inhibition (IC50) is greater than 100 µM.
For the molecule `COc1cccc2c1C(=O)c1c(O)c3c(c(O)c1C2=O)C[C@@](O)(C(=O)CO)C[C@@H]3O[C@H]1C[C@H](N)[C@H](O)[C@H](C)O1` [Doxorubicin, reference compound], the IC50 in series [1] (Homo sapiens, MCF7) came out at 2.5 ± 0.64 µM; in series [2] it was 3.67 ± 0.24 µM; in the series on MRC-5 normal cell line (setting [3]) it was 0.52 ± 0.07 µM.
As to `O=c1c2cc(Br)ccc2nc(SCc2ccccc2)n1-c1ccccc1` [8c, 2-(benzylthio)-6-bromo-3-phenylquinazolin-4(3 H )-one], the melting point was 140 to 142 °C. Also, the IC50 in series [1] (Homo sapiens, MCF7) stood at 142 ± 3.95 µM. Besides, in series [2], the IC50 worked out at 170.1 ± 1.34 µM. For the same molecule, the IC50 in the series with MRC-5 normal cell line (setting [3]) was greater than 100 µM.

For orientation: IC50 means the midpoint of a concentration-inhibition curve. A word on the melting point: it is the temperature of the solid-liquid transition.

The record behind these values is PMC11225515, “6-Bromo quinazoline derivatives as cytotoxic agents: design, synthesis, molecular docking and MD simulation” (BMC Chemistry, 2024).
